# Patent US20240148709A1, “METHODS OF TREATING EYE PAIN AND EYE DISORDERS” (Aisa Pharma, Inc., priority 2022, published 2024)
# Tested on: participants with SSc-RP
# Assay: Scleroderma Health Assessment Questionnaire (SHAQ), Phase 2a study Part A
# Assay type: in vivo, human
# Details: cilnidipine 10 mg and/or tadalafil 5 mg arms
# Method: Part A—double-blind, placebo-controlled, parallel-group, dose selection, will assess the safety and efficacy of two doses of cilnidipine (10 mg and 20 mg), alone and in combination with tadalafil. A total of 36 participants will be randomized to one of six prespecified treatment arms. Refer to FIG. 1 for treatment arms in Part A of the study. Dosing last for 12 (±2) days in which participants will self-administer daily doses of assigned treatment in the morning. Each participant will take one capsule and one tablet to blind the active therapy being received.
# The standard, validated, patient reported outcome measures tool for SSc patients, the SHAQ, will be collected at the time points specified in the study schedules (FIG. 2 and FIGS. 3A and 3B) to assess the participant's quality of life. The SHAQ includes a Raynaud's VAS that will also be reported separately.
# Results: Patients in the study were administered the Scleroderma Health Assessment Questionnaire (SHAQ) at the time of study entry and during clinic visits following the treatment period. The study is a two-part, parallel arm design, prospective, double-blind, randomized study conducted in Australia (Flinders Medical Center). 27 patients were randomized into the first phase of the study, following which a DSMB meeting was held, which reviewed data on the primary study endpoint and key Raynaud's secondary endpoints. Data on the SHAQ was not available for the DSMB to review. The mITT population, in which any data was available post treatment was 24 patients was the analysis population for this first part of the study. The second part (i.e., part B) of the study will randomize 36 patients in a double blind, randomized, prospective, placebo controlled, crossover study. In the first part (i.e., Part A) of the study for which data is presented, patients were randomized into 6 groups, cilnidipine at two doses (10 and 20 mg) alone and in combination with tadalafil 5 mg, tadalafil 5 mg alone, and placebo. […] The DSMB recommended that the study proceed into its double blind prospective cross overpowered second phase and compare cilnidipine 20 mg alone to placebo.
structure (smiles),measurement,value
"COCCOC(=O)C1=C(C)NC(C)=C(C(=O)OC/C=C/c2ccccc2)C1c1cccc([N+](=O)[O-])c1 (stereo not shown) [Cilnidipine, cilnidipine]","SHAQ Overall Change in Severity, Percent Change from Baseline, Max",−26.8%
same,"SHAQ Overall Change in Severity, Percent Change from Baseline, Mean (SD)",−56.96 (38.271) %
same,"SHAQ Overall Change in Severity, Percent Change from Baseline, Median",−44.12%
same,"SHAQ Overall Change in Severity, Percent Change from Baseline, Min",−100.0%
same,"SHAQ Overall Change in Severity, Percent Change from Baseline, Q1",−100.00%
same,"SHAQ Overall Change in Severity, Percent Change from Baseline, Q3",−26.76%
same,"SHAQ Standard disability index, Change from Baseline, Max","0.00, 0.00"
same,"SHAQ Standard disability index, Change from Baseline, Mean (SD)",0.0 (0.0000)
same,"SHAQ Standard disability index, Change from Baseline, Median",0.000
same,"SHAQ Standard disability index, Change from Baseline, Min","0.00, 0.00"
same,"SHAQ Standard disability index, Change from Baseline, Q1","0.000, 0.000"
same,"SHAQ Standard disability index, Change from Baseline, Q3","0.000, 0.000"
same,"SHAQ Standard disability index, In Clinic Visit (Day 12), Max",1.50
same,"SHAQ Standard disability index, In Clinic Visit (Day 12), Mean (SD)",0.656 (0.7731)
same,"SHAQ Standard disability index, In Clinic Visit (Day 12), Median",0.563
same,"SHAQ Standard disability index, In Clinic Visit (Day 12), Min",0.00
same,"SHAQ Standard disability index, In Clinic Visit (Day 12), Q1",0.000
same,"SHAQ Standard disability index, In Clinic Visit (Day 12), Q3",1.313
same,"SHAQ Standard disability index, Percent Change from Baseline, Max","0.0, 0.0%"
same,"SHAQ Standard disability index, Percent Change from Baseline, Mean (SD)",0.0 (0.000) %
same,"SHAQ Standard disability index, Percent Change from Baseline, Median",0.00%
same,"SHAQ Standard disability index, Percent Change from Baseline, Min","0.0, 0.0%"
same,"SHAQ Standard disability index, Percent Change from Baseline, Q1","0.00, 0.00%"
same,"SHAQ Standard disability index, Percent Change from Baseline, Q3","0.00, 0.00%"
same,"SHAQ Visual Analog Scale-Breathing Problems, Change from Baseline, Max",0.00
same,"SHAQ Visual Analog Scale-Breathing Problems, Change from Baseline, Mean (SD)",−0.300 (0.6000)
same,"SHAQ Visual Analog Scale-Breathing Problems, Change from Baseline, Median",0.000
same,"SHAQ Visual Analog Scale-Breathing Problems, Change from Baseline, Min",−1.20
same,"SHAQ Visual Analog Scale-Breathing Problems, Change from Baseline, Q1",−0.600
same,"SHAQ Visual Analog Scale-Breathing Problems, Change from Baseline, Q3",0.000
same,"SHAQ Visual Analog Scale-Breathing Problems, In Clinic Visit (Day 12), Max",6.30
same,"SHAQ Visual Analog Scale-Breathing Problems, In Clinic Visit (Day 12), Mean (SD)",1.575 (3.1500)
same,"SHAQ Visual Analog Scale-Breathing Problems, In Clinic Visit (Day 12), Median",0.000
same,"SHAQ Visual Analog Scale-Breathing Problems, In Clinic Visit (Day 12), Min",0.00
same,"SHAQ Visual Analog Scale-Breathing Problems, In Clinic Visit (Day 12), Q1",0.000
same,"SHAQ Visual Analog Scale-Breathing Problems, In Clinic Visit (Day 12), Q3",3.150
same,"SHAQ Visual Analog Scale-Breathing Problems, Percent Change from Baseline, Max","−16.0, −16.0%"
same,"SHAQ Visual Analog Scale-Breathing Problems, Percent Change from Baseline, Mean (SD)",−16.00%
same,"SHAQ Visual Analog Scale-Breathing Problems, Percent Change from Baseline, Median",−16.00%
same,"SHAQ Visual Analog Scale-Breathing Problems, Percent Change from Baseline, Min","−16.0, −16.0%"
same,"SHAQ Visual Analog Scale-Breathing Problems, Percent Change from Baseline, Q1","−16.00, −16.00%"
same,"SHAQ Visual Analog Scale-Breathing Problems, Percent Change from Baseline, Q3","−16.00, −16.00%"
same,"SHAQ Visual Analog Scale-Intestinal Problems, Change from Baseline, Max",0.00
same,"SHAQ Visual Analog Scale-Intestinal Problems, Change from Baseline, Mean (SD)",−1.875 (2.1838)
same,"SHAQ Visual Analog Scale-Intestinal Problems, Change from Baseline, Median",−1.550
same,"SHAQ Visual Analog Scale-Intestinal Problems, Change from Baseline, Min",−4.40
same,"SHAQ Visual Analog Scale-Intestinal Problems, Change from Baseline, Q1",−3.700
same,"SHAQ Visual Analog Scale-Intestinal Problems, Change from Baseline, Q3",−0.050
same,"SHAQ Visual Analog Scale-Intestinal Problems, In Clinic Visit (Day 12), Max",3.80
same,"SHAQ Visual Analog Scale-Intestinal Problems, In Clinic Visit (Day 12), Mean (SD)",1.100 (1.8221)
same,"SHAQ Visual Analog Scale-Intestinal Problems, In Clinic Visit (Day 12), Median",0.300
same,"SHAQ Visual Analog Scale-Intestinal Problems, In Clinic Visit (Day 12), Min",0.00
same,"SHAQ Visual Analog Scale-Intestinal Problems, In Clinic Visit (Day 12), Q1",0.000
same,"SHAQ Visual Analog Scale-Intestinal Problems, In Clinic Visit (Day 12), Q3",2.200
same,"SHAQ Visual Analog Scale-Intestinal Problems, Percent Change from Baseline, Max",−44.1%
same,"SHAQ Visual Analog Scale-Intestinal Problems, Percent Change from Baseline, Mean (SD)",−77.37 (29.418) %
same,"SHAQ Visual Analog Scale-Intestinal Problems, Percent Change from Baseline, Median",−88.00%
same,"SHAQ Visual Analog Scale-Intestinal Problems, Percent Change from Baseline, Min",−100.0%
same,"SHAQ Visual Analog Scale-Intestinal Problems, Percent Change from Baseline, Q1",−100.00%
same,"SHAQ Visual Analog Scale-Intestinal Problems, Percent Change from Baseline, Q3",−44.12%
same,"SHAQ Visual Analog Scale-Pain, Change from Baseline, Max",0.30
same,"SHAQ Visual Analog Scale-Pain, Change from Baseline, Mean (SD)",−0.100 (0.4243)
same,"SHAQ Visual Analog Scale-Pain, Change from Baseline, Median",0.000
same,"SHAQ Visual Analog Scale-Pain, Change from Baseline, Min",−0.70
same,"SHAQ Visual Analog Scale-Pain, Change from Baseline, Q1",−0.350
same,"SHAQ Visual Analog Scale-Pain, Change from Baseline, Q3",0.150
same,"SHAQ Visual Analog Scale-Pain, In Clinic Visit (Day 12), Max",3.60
same,"SHAQ Visual Analog Scale-Pain, In Clinic Visit (Day 12), Mean (SD)",1.875 (1.6641)
same,"SHAQ Visual Analog Scale-Pain, In Clinic Visit (Day 12), Median",1.950
same,"SHAQ Visual Analog Scale-Pain, In Clinic Visit (Day 12), Min",0.00
same,"SHAQ Visual Analog Scale-Pain, In Clinic Visit (Day 12), Q1",0.500
same,"SHAQ Visual Analog Scale-Pain, In Clinic Visit (Day 12), Q3",3.250
same,"SHAQ Visual Analog Scale-Pain, Percent Change from Baseline, Max",11.5%
same,"SHAQ Visual Analog Scale-Pain, Percent Change from Baseline, Mean (SD)",−9.88 (27.711) %
same,"SHAQ Visual Analog Scale-Pain, Percent Change from Baseline, Median",0.00%
same,"SHAQ Visual Analog Scale-Pain, Percent Change from Baseline, Min",−41.2%
same,"SHAQ Visual Analog Scale-Pain, Percent Change from Baseline, Q1",−41.18%
same,"SHAQ Visual Analog Scale-Pain, Percent Change from Baseline, Q3",11.54%
same,"SHAQ Visual Analog Scale-Raynaud's, Change from Baseline, Max",1.50
same,"SHAQ Visual Analog Scale-Raynaud's, Change from Baseline, Mean (SD)",0.325 (1.0468)
same,"SHAQ Visual Analog Scale-Raynaud's, Change from Baseline, Median",0.350
same,"SHAQ Visual Analog Scale-Raynaud's, Change from Baseline, Min",−0.90
same,"SHAQ Visual Analog Scale-Raynaud's, Change from Baseline, Q1",−0.500
same,"SHAQ Visual Analog Scale-Raynaud's, Change from Baseline, Q3",1.150
same,"SHAQ Visual Analog Scale-Raynaud's, In Clinic Visit (Day 12), Max",4.30
